Patent US9429568B2, “Silaanthracene as a red and near infrared sensor and a method to manufacture such a sensor” (Board of Trustees of Southern Illinois University on Behalf …, priority 2010, dated 2016)

Legend:
[1] = Hypochlorous acid (HOCl) sensor: fluorescence and absorbance response to added HOCl; format: physicochemical; details: 0.5 μM compound; for peak emission intensity wavelength: all HOCl concentrations
Description: A solution of compound 3 from Table 2 herein was formed at a concentration of 0.5 μM and at a pH of 7.4. HOCl was added to the solution at concentrations ranging up to 2 μM and the fluorescence of the resulting solutions was measured after exposure to an excitatory light pulse of 655 nm.
A solution of compound 29 from Table 5 herein was formed at a concentration of 0.5 μM and at a pH of 7.4. HOCl was added to the solution at concentrations ranging up to 5 μM and the fluorescence of the resulting solutions was measured after exposure to an excitatory light pulse of 580 nm.

[2] = Ratiometric sensor for hypochlorous acid and pH: UV-Vis and fluorescence in buffer series; format: physicochemical; details: excited at 430 nm, all HOCl concentrations, phosphate or citrate/phosphate buffer, 0.5% DMF
Description: A solution of compound 29 from Table 4 herein was dissolved in a series of phosphate buffer or citrate/phosphate buffer solutions using 0.5% DMF for dissolution. The pH level of each sample solution was checked using a digital pH meter (Accumet, AB15) equipped with a glass electrode (Accumet, pH/ATC Calomel) to confirm the pH of each sample solution. After recording the pH of a sample solution, 20 mL of the sample solution was stirred in a 50 mL beaker to saturate the sample solution with oxygen. Small aliquots from a dilute HOCl solution were then added to the sample solution. After the addition of each HOCl aliquot, the sample solution was stirred for approximately 45 seconds and then the UV-Vis and fluorescence of the sample solution was measured using a quartz cuvette with fluorescence excitations at 570 nm and 430 nm. The concentration of the NaOCl solution was determined by using a standardized sodium thiosulfate solution.

| SMILES | peak emission intensity wavelength ([1]; pH 7.4, HOCl up to 2 μM, excitation 655 nm) | maximum absorbance wavelength λmax ([1]; pH 7.4, HOCl up to 5 μM) | shoulder peak emission wavelength ([1]; pH 7.4, HOCl up to 5 μM, excited at 430 nm) | peak emission intensity wavelength ([1]; pH 7.4, HOCl up to 5 μM, excited at 570 nm) | first emission intensity peak wavelength [2] | second more intense emission peak wavelength [2] |
| --- | --- | --- | --- | --- | --- | --- |
| CN(C)c1ccc2c(c1)[Si](C)(C)c1cc(N(C)C)ccc1C21SCc2ccccc21 [Compound 3] | 663 nm | – | – | – | – | – |
| C[Si]1(C)c2cc(O)ccc2C2(c3ccccc3C(=O)N2CCN2CCNCCNCCNCC2)c2ccc(O)cc21 [Compound 29] | – | 590 nm | 570 nm | 605 nm | 570 nm | 600 nm |
